IC50 and Ratio data for three molecules are collected here from ChEMBL document CHEMBL1126769, “Synthesis and kappa-opioid antagonist selectivity of a norbinaltorphimine congener. Identification of the address moiety required for kappa-antagonist activity” (J Med Chem, 1993).

The target of one test is Mu-type opioid receptor (Cavia porcellus, UniProt P97266). Put plainly: Inhibitory activity against mu-opioid receptor in guinea pig ileum longitudinal muscle using morphine. It counts as tissue-based.
Mu-type opioid receptor, sequence (P97266 whole entry): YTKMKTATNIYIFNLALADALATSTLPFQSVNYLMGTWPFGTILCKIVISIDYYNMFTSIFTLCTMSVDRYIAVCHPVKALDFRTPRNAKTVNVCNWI
The target of test [1] is Opioid receptors; delta & kappa (Homo sapiens) (UniProt P41145+P41143). Kind of test: Selectivity ratio between kappa-opioid receptor to delta-opioid receptor. It counts as protein assay.
Opioid receptors; delta & kappa (Homo sapiens), sequence (P41143 whole entry, looked up): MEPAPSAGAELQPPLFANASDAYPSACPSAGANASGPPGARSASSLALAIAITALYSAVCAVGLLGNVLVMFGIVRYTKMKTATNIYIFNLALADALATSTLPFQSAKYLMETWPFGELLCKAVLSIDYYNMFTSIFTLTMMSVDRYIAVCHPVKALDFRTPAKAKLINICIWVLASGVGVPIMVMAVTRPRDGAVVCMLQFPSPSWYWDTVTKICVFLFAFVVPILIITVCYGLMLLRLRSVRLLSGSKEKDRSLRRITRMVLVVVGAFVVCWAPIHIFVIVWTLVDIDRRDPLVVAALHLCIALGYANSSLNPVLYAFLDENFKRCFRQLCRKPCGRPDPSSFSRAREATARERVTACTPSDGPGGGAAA
Opioid receptors; delta & kappa (Homo sapiens), sequence (P41145 whole entry, looked up): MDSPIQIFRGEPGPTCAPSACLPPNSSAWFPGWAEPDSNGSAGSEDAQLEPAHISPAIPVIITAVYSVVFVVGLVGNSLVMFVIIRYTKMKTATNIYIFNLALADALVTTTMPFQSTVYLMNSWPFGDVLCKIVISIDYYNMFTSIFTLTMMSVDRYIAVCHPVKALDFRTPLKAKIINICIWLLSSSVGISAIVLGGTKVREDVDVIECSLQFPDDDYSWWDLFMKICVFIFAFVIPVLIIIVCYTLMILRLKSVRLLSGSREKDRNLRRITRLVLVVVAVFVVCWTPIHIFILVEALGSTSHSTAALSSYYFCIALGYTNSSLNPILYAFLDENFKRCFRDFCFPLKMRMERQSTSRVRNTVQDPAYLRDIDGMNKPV
The target in test [2] is Opioid receptors; mu & kappa (Homo sapiens) (UniProt P41145+P35372). Put plainly: Selectivity ratio between kappa-opioid receptor to mu-opioid receptor. In kind it is protein assay.
Opioid receptors; mu & kappa (Homo sapiens), sequence (P35372 whole entry, looked up): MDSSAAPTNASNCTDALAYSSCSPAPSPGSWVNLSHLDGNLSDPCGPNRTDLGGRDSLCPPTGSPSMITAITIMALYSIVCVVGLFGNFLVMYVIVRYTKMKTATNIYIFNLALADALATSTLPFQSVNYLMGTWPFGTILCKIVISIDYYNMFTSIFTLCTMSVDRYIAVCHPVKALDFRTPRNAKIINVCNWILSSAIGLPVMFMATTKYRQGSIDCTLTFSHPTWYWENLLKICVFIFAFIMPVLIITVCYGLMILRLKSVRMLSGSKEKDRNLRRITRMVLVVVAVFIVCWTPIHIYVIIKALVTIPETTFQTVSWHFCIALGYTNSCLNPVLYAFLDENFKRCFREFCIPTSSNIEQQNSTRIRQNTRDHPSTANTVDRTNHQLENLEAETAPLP
Opioid receptors; mu & kappa (Homo sapiens), sequence (P41145 whole entry, looked up): as the sequence (P41145 whole entry, looked up) above
Test [3] addresses Kappa-type opioid receptor (Cavia porcellus, UniProt P41144). Put plainly: Inhibitory activity against kappa-opioid receptor in guinea pig ileum longitudinal muscle using ethylketazocine. In kind it is tissue-based.
Test [4] addresses Delta-type opioid receptor (Mus musculus, UniProt P32300). Kind of test: Inhibitory activity against delta-opioid receptor in mouse vas deferens preparation using DADLE.

Kappa-type opioid receptor, sequence (P41144 whole entry): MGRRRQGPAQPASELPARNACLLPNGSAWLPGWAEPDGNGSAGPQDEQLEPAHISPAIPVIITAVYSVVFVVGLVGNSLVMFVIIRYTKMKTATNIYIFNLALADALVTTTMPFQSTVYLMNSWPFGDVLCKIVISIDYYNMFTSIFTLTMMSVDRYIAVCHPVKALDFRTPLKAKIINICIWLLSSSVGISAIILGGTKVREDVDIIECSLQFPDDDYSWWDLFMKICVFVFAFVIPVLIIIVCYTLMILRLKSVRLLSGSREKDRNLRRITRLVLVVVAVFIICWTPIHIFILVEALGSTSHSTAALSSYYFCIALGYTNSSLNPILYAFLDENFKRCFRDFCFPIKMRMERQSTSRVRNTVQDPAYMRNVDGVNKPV
Delta-type opioid receptor, sequence (P32300 whole entry): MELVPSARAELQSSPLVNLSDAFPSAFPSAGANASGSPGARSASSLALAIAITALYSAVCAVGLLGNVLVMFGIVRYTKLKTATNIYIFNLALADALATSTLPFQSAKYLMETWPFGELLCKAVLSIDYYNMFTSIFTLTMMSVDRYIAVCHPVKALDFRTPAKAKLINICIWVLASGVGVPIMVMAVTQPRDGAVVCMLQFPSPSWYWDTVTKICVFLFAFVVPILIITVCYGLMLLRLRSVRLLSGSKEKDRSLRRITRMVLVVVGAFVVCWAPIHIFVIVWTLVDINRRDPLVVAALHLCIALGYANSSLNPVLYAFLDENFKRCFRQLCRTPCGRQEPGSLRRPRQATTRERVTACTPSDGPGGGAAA

A word on the IC50: it is the point on the concentration scale where inhibition reaches its midpoint. The low end stands for greater potency, the high end for weaker potency. Regarding `Oc1ccc2c3c1O[C@H]1c4[nH]c5c(c4C[C@@]4(O)[C@@H](C2)N(CC2CC2)CC[C@]314)C[C@@]1(O)[C@H]2Cc3ccc(O)c4c3[C@@]1(CCN2CC1CC1)[C@H]5O4` [NORBINALTORPHIMINE], the results for the IC50 (against Mu-type opioid receptor; in test [3]) were 8.3 nM and 181 nM, respectively. Besides, the Ratio is 17 in test [1] and 22 in test [2].
`Cn1c2c(c3c1[C@@H]1Oc4c(O)ccc5c4[C@@]14CCN(CC1CC1)[C@H](C5)[C@]4(O)C3)C[C@H]1CNCC[C@@H]1C2`: the results for the IC50 (in test [4]; against Mu-type opioid receptor; in test [3]) were 1.1 nM, 1 nM and 40 nM, respectively. Also, the Ratio in test [1] worked out at 36; in test [2], 40.
The matching figures for `Cn1c2c(c3c1[C@@H]1Oc4c(O)ccc5c4[C@@]14CCN(CC1CC1)[C@H](C5)[C@]4(O)C3)C[C@H]1CN(C(=O)OCc3ccccc3)CC[C@@H]1C2`: 9.2 nM, 1.7 nM, 1.6 nM, 0.2 and 0.9.
